Reference: patent US20230381142A1, “ANTILEISHMANIAL COMPOUNDS, COMPOSITIONS AND USE THEREOF” (TRUSTEES OF BOSTON UNIVERSITY, priority 2022, published 2023)
Converted amounts (≈) assume the structure as drawn.

Columns and labels:
[1] = test system: L. donovani intracellular amastigotes infecting THP-1 macrophages; assay: GSK intramacrophage L. donovani assay (LD AMMAC, inMac; Assay Conditions C); assay type: cell-based; settings: Leishmania donovani; growth inhibition of L. donovani intracellular amastigotes infecting THP-1 macrophages; read-out: LD AMMAC EC50
Summary of the method: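 EC50 values come from counting amastigotes per infected THP-1 macrophage (AMMAC). Parallel read-outs give percentage of infected cells per well (INFCELL) and a macrophage-number toxicity EC50 (MAC).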

host THP-1 macrophages = assay: GSK inMac assay, host cell toxicity readout (LD MAC); assay type: cell-based, human; settings: Homo sapiens, THP-1, cytotoxicity against host THP-1 macrophages
Summary of the method: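 MAC EC50 reflects THP-1 host cell counts, measured within GSK's inMac L. donovani infection assay that also scores intracellular amastigotes and infected-cell percentage.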

HepG2 cells = assay: HepG2 cytotoxicity; assay type: cell-based; settings: Homo sapiens; toxicity against HepG2 cells
Protocol: Given the literature precedents described above and the apparent narrow tolerance for R^3 substitutions observed in the primary screen compounds, a thorough and methodical assessment was undertaken of tolerated groups at the three points of diversity (R^1/R^2/R^3) for the core. At this stage of the project, all analogues were assessed using a battery of assays performed in-house at GlaxoSmithKline. For antileishmanial activity, GSK's inMac assay was utilized. This assay provides two readouts of compound potency: average number of intracellular amastigotes per infected cell (AMMAC) EC50, percentage of infected cells per well (INFCELL) EC50, as well as a toxicity output derived from the number of host cells (MAC EC50). In addition, compounds were assessed for toxicity against HepG2 cells (HEPG2 EC50). Here, AMMAC EC50 values were focused on for relative potency assessments. […] It should be noted that for all compounds assessed in this project, the measured toxicity against THP-1 macrophages either equaled or exceeded that of HepG2 hepatocytes, therefore the MAC SI is used here as the more conservative estimate of therapeutic index.

[2] = Kinetic aqueous solubility by CLND; assay type: physicochemical; settings: kinetic from dmso stock, high-throughput CLND
Protocol: Solubility of compounds using ChemiLuminescent Nitrogen Detection (CLND) was measured as described. Solubility of compounds using Charged Aerosol Detection (CAD) was measured as described. Solubility of solid compounds in Fasted Simulated Intestinal Fluid (FaSSIF) was measured as described.

[3] = Artificial membrane permeability (AMP); assay type: in vitro ADME; settings: PAMPA, pH 7.4
Protocol: Passive permeability of compounds via rate of permeation through an artificial phospholipid membrane at pH 7.4 was measured in a high-throughput format, in duplicate. A solution of 1.8% phosphatidylcholine in 1% decane was added to a 96-well Millicell filter plate along with 250 μL of 50 mM phosphate buffer, pH 7.4 on the donor side, and 100 μL of the same buffer solution on the receiver side. The assay plate was shaken for 45 minutes before adding test compounds. Test compounds were then added to the filter plate and then incubated at room temperature with shaking for three hours. The donor and receiver solutions were next transferred to a 384-well plate for analysis by LC/MS.

human serum albumin = human serum albumin (Homo sapiens, UniProt P02768); assay: Human serum albumin (HSA) binding, chromatographic; assay type: in vitro ADME
Protocol: The percentage of compound bound to human serum albumin was measured using a chromatographic method as described. Briefly, each compound was assayed on an immobilized HSA column and gradient retention times measured, with chromatographic peak detection by UV. Each retention time was then converted to a % HSA bound value using a calibration set of compounds with a known % HSA binding.

[4] = Property forecast index (PFI = ChromLogD7.4 + aromatic rings); assay type: physicochemical
Protocol: At the outset of the project, compound 1 was evaluated against GSK's established criteria for antileishmanial compound advancement (Table 2). Some of these assessments were performed on racemic 1, while chiral separation was also pursued of the 1 racemate to determine the active enantiomer. […] Based on this promising profile, it progressed into medicinal chemistry optimization to better understand structure-activity relationships (SAR) toward improved potency, as well as structure-property relationships (SPR) with an eye toward reducing PFI and plasma protein binding.

[5] = aqueous (not further specified)
[6] = aqueous medium (not further specified)

Sequence of human serum albumin (P02768 25-609): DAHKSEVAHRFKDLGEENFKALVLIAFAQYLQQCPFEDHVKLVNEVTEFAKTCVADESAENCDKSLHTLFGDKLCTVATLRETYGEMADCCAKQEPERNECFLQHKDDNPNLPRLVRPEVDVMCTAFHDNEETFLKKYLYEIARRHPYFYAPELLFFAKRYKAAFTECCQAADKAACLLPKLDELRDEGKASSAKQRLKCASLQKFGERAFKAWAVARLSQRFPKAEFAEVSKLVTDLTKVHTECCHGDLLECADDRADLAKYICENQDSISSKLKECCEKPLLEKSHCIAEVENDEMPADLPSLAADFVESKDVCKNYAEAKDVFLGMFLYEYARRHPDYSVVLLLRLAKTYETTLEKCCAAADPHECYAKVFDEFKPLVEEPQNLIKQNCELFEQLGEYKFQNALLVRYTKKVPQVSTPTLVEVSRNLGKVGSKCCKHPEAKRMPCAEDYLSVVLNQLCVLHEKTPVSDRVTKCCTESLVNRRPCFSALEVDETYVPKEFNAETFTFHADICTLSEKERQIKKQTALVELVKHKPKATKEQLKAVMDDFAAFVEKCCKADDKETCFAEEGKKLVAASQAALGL

COc1ccc(N2C(=O)c3[nH]nc(CCc4ccccc4)c3C2c2ccc(F)cc2)cc1 (stereo not shown) [Compound 15]
EC50 [1]: 6.3 µM | EC50 (host THP-1 macrophages): 25.1 µM | EC50 (HepG2 cells): 50.1 µM | solubility [2]: 6 µM (≈ 2.56 µg/mL) | Papp at 3 h [3]: 36 ×10⁻⁶ cm/s | HSA Binding (human serum albumin): 98.0% | PFI [4]: 9.7

COc1ccc(N2C(=O)c3[nH]nc(-c4ccc5c(c4)CCC5)c3C2c2ccc(F)cc2)cc1 (stereo not shown) [Compound 16]
EC50 [1]: 5 µM | EC50 (host THP-1 macrophages): 7.9 µM | EC50 (HepG2 cells): 25.1 µM | solubility [2]: 17 µM (≈ 7.47 µg/mL) | Papp at 3 h [3]: 13 ×10⁻⁶ cm/s | HSA Binding (human serum albumin): 97.8% | PFI [4]: 10.6

COc1ccc(N2C(=O)c3[nH]nc(-c4ccc(CC(C)C)cc4)c3C2c2ccc(F)cc2)cc1 (stereo not shown) [Compound 17]
EC50 [1]: 4 µM | EC50 (host THP-1 macrophages): 7.9 µM | EC50 (HepG2 cells): 15.8 µM | solubility [2]: < 1 µM | Papp at 3 h [3]: 34 ×10⁻⁶ cm/s | HSA Binding (human serum albumin): 98.0% | PFI [4]: 11.4

CC(C)Cc1n[nH]c2c1C(c1ccc(F)cc1)N(c1ccc(O)cc1)C2=O (stereo not shown) [Compound 18]
EC50 [1]: 5 µM | EC50 (host THP-1 macrophages): 39.8 µM | EC50 (HepG2 cells): > 100 µM | solubility [2, 5]: ≥ 430 µM | Papp at 3 h [3]: 28.5 ×10⁻⁶ cm/s | HSA Binding (human serum albumin): 95.6% | PFI [4]: 7.1

CCOc1ccc(N2C(=O)c3[nH]nc(CC(C)C)c3C2c2ccc(F)cc2)cc1 (stereo not shown) [Compound 19]
EC50 [1]: 1.6 µM | EC50 (host THP-1 macrophages): 20 µM | EC50 (HepG2 cells): 50.1 µM | solubility [2, 5]: 38 µM (≈ 15 µg/mL) | Papp at 3 h [3]: 25 ×10⁻⁶ cm/s | HSA Binding (human serum albumin): 97.5% | PFI [4]: 8.9

CC(C)Cc1n[nH]c2c1C(c1ccc(F)cc1)N(c1ccc(OC(F)(F)F)cc1)C2=O (stereo not shown) [Compound 20]
EC50 [1]: 3.2 µM | EC50 (host THP-1 macrophages): 7.9 µM | EC50 (HepG2 cells): 25.1 µM | solubility [2, 5]: 5 µM (≈ 2.17 µg/mL) | Papp at 3 h [3]: 29 ×10⁻⁶ cm/s | HSA Binding (human serum albumin): 98.1% | PFI [4]: 9.8

CCc1ccc(N2C(=O)c3[nH]nc(CC(C)C)c3C2c2ccc(F)cc2)cc1 (stereo not shown) [Compound 22]
EC50 [1]: 4 µM | EC50 (host THP-1 macrophages): 20 µM | EC50 (HepG2 cells): 50.1 µM | solubility [2, 5]: 9 µM (≈ 3.4 µg/mL) | Papp at 3 h [3]: < 1 ×10⁻⁶ cm/s | HSA Binding (human serum albumin): 97.4% | PFI [4]: 9.7

CC(C)Cc1n[nH]c2c1C(c1ccc(F)cc1)N(c1ccc(F)cc1)C2=O (stereo not shown) [Compound 23]
EC50 [1]: 6.3 µM | EC50 (host THP-1 macrophages): 25.1 µM | EC50 (HepG2 cells): 50.1 µM | solubility [2, 5]: 61 µM (≈ 22.4 µg/mL) | Papp at 3 h [3]: 12 ×10⁻⁶ cm/s | HSA Binding (human serum albumin): 97.7% | PFI [4]: 8.8

CC(C)Cc1n[nH]c2c1C(c1ccc(F)cc1)N(c1ccc(Br)cc1)C2=O (stereo not shown) [Compound 24, 5-(4-bromophenyl)-4-(4-fluorophenyl)-3-isobutyl-4,5-dihydropyrrolo[3,4-c]pyrazol-6(1H)-one]
EC50 [1]: 1.3 µM | EC50 (host THP-1 macrophages): 15.8 µM | EC50 (HepG2 cells): 39.8 µM | solubility [2, 5]: 9 µM (≈ 3.85 µg/mL) | Papp at 3 h [3]: 32 ×10⁻⁶ cm/s | HSA Binding (human serum albumin): 97.9% | PFI [4]: 9.7

CC(C)Cc1n[nH]c2c1C(c1ccc(F)cc1)N(c1ccc(C(C)(C)C)cc1)C2=O (stereo not shown) [Compound 25]
EC50 [1]: 10 µM | EC50 (host THP-1 macrophages): > 50 µM | EC50 (HepG2 cells): 50.1 µM | solubility [2, 5]: < 1 µM | Papp at 3 h [3]: 13 ×10⁻⁶ cm/s | HSA Binding (human serum albumin): 97.9% | PFI [4]: 10.5

COC(=O)c1ccc(N2C(=O)c3[nH]nc(CC(C)C)c3C2c2ccc(F)cc2)cc1 (stereo not shown) [Compound 26]
EC50 [1]: 1.6 µM | EC50 (host THP-1 macrophages): 31.6 µM | EC50 (HepG2 cells): 39.8 µM | solubility [2, 5]: 26 µM (≈ 10.6 µg/mL) | Papp at 3 h [3]: 41 ×10⁻⁶ cm/s | HSA Binding (human serum albumin): 97.5% | PFI [4]: 8.5

CC(C)Cc1n[nH]c2c1C(c1ccc(F)cc1)N(c1ccc(C(=O)O)cc1)C2=O (stereo not shown) [Compound 27]
EC50 [1]: > 50 µM | EC50 (host THP-1 macrophages): > 50 µM | EC50 (HepG2 cells): > 100 µM | solubility [2, 5]: ≥ 389 µM | Papp at 3 h [3]: < 0.3 ×10⁻⁶ cm/s | HSA Binding (human serum albumin): 95.2% | PFI [4]: 4.9

COc1ccccc1N1C(=O)c2[nH]nc(CC(C)C)c2C1c1ccc(F)cc1 (stereo not shown) [Compound 29]
EC50 [1]: 20 µM | EC50 (host THP-1 macrophages): > 50 µM | EC50 (HepG2 cells): 79.4 µM | solubility [2, 6]: 240 µM (≈ 91.1 µg/mL) | Papp at 3 h [3]: 59 ×10⁻⁶ cm/s | HSA Binding (human serum albumin): 97.5% | PFI [4]: 8.5

COc1cccc(N2C(=O)c3[nH]nc(CC(C)C)c3C2c2ccc(F)cc2)c1 (stereo not shown) [Compound 30]
EC50 [1]: 12.6 µM | EC50 (host THP-1 macrophages): 31.6 µM | EC50 (HepG2 cells): 63.1 µM | solubility [2, 6]: 64 µM (≈ 24.3 µg/mL) | Papp at 3 h [3]: 37 ×10⁻⁶ cm/s | HSA Binding (human serum albumin): 97.3% | PFI [4]: 8.4

COc1ccc(N2C(=O)c3[nH]nc(CC(C)C)c3C2c2ccc(F)cc2)cn1 (stereo not shown) [Compound 31]
EC50 [1]: 10 µM | EC50 (host THP-1 macrophages): > 50 µM | EC50 (HepG2 cells): > 100 µM | solubility [2, 6]: 194 µM (≈ 73.8 µg/mL) | Papp at 3 h [3]: 26 ×10⁻⁶ cm/s | HSA Binding (human serum albumin): 95.5% | PFI [4]: 8.0

CC(C)Cc1n[nH]c2c1C(c1ccc(F)cc1)N(c1cccnc1)C2=O (stereo not shown) [Compound 32]
EC50 [1]: 25.1 µM | EC50 (host THP-1 macrophages): > 50 µM | EC50 (HepG2 cells): > 100 µM | solubility [2, 6]: 182 µM (≈ 63.8 µg/mL) | Papp at 3 h [3]: 47 ×10⁻⁶ cm/s | HSA Binding (human serum albumin): 93.4% | PFI [4]: 7.2

CC(C)Cc1n[nH]c2c1C(c1ccc(F)cc1)N(c1ccccn1)C2=O (stereo not shown) [Compound 33]
EC50 [1]: 20 µM | EC50 (host THP-1 macrophages): > 50 µM | EC50 (HepG2 cells): > 100 µM | solubility [2, 6]: 219 µM (≈ 76.7 µg/mL) | Papp at 3 h [3]: 20 ×10⁻⁶ cm/s | HSA Binding (human serum albumin): 96.6% | PFI [4]: 8.5

COc1ccc(CN2C(=O)c3[nH]nc(CC(C)C)c3C2c2ccc(F)cc2)cc1 (stereo not shown) [Compound 34]
EC50 [1]: 12.6 µM | EC50 (host THP-1 macrophages): 31.6 µM | EC50 (HepG2 cells): 50.1 µM | solubility [2, 6]: 45 µM (≈ 17.7 µg/mL) | Papp at 3 h [3]: 55 ×10⁻⁶ cm/s | HSA Binding (human serum albumin): 98.2% | PFI [4]: 9.0

Cc1ccc(CN2C(=O)c3[nH]nc(CC(C)C)c3C2c2ccc(F)cc2)o1 (stereo not shown) [Compound 35]
EC50 [1]: 15.8 µM | EC50 (host THP-1 macrophages): 39.8 µM | EC50 (HepG2 cells): 50.1 µM | solubility [2, 6]: 19 µM (≈ 6.98 µg/mL) | Papp at 3 h [3]: 37 ×10⁻⁶ cm/s | HSA Binding (human serum albumin): 97.2% | PFI [4]: 8.9
